Data set [1] has as its target T1, human erythrocyte acetylcholinesterase (Homo sapiens, UniProt P22303).
T1 construct: solution of hemolyzed erythrocytes diluted 400-fold; from tissue; host or cells: hemolyzed erythrocytes from blood of healthy human donors
Nature of the data set: AChE inhibition, modified Ellman's method. In kind it is biochemical. The note with it: for AChE reaction velocity: control 0.263 ± 0.011 A/min. The procedure:
(§1) The activity of both cholinesterases (AChE and BuChE) were assessed spectrophotometrically according to the Ellman’s method with some modifications by Worek et al.. This test development included experimental determination of the optimal testing conditions. For all measurements, 37 °C was used as the best temperature for enzymatic determinations in material of human origin.
(§2) The solution of plasma 200-fold diluted with 0.9% NaCl and solution of hemolyzed erythrocytes diluted 400-fold with 0.9% were incubated (37 °C, 15 min) with 5 μL DTNB (0.01 mol/L) and 10 μL tested compound at a wider range of concentration than the therapeutic range in order to assess the overall effect of the compound on human esterases (AChE and BuChE). The controls without antipsychotics, containing only DTNB and diluted plasma or diluted solution of hemolyzed erythrocytes, were prepared. […] The final volume of a sample was 500 μL. […] The maximal velocity of the reaction was determined on the basis of changes in absorbance over time.
(§3) AChE SI (selectivity index) was calculated by using the following formula: SI = IC50 of BuChE/IC50 of AChE. However, BuChE SI was defined as IC50 of AChE/IC50 of BuChE. Maximal velocity (Vmax) and the Michaelis constant (Km) were calculated with the use of linear regression—according to the Hanes–Woolf plot.
(DTNB colorimetry detects thiols as they appear.)

The next data set has as its target AChE (Homo sapiens, UniProt P22303). Description: Synergism of antipsychotics with donepezil/rivastigmine (binary mixtures), AChE.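 Also: antipsychotic concentration kept fixed across all measurements, selected from estimated therapeutic plasma levels.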 As to conditions: ComboSyn.
Data set [2] concerns the target T2, recombinant human β-amyloid (1–42) (Homo sapiens, UniProt P05067).
T2 construct: recombinant human β-amyloid (1–42; ultrapure); purchased Sigma-Aldrich (St. Louis, MO, USA)
Nature of the data set: Beta-amyloid aggregation, Thioflavin T fluorescence. In kind it is biochemical. How it is done:
Aβ42 peptide was dissolved in DMSO and left to hydrate for a few minutes. The solution was centrifuged at 10,000 rpm for 5 min at 4 °C to separate any precipitated material. The solution at a concentration of 220 μmol/L was stored in small aliquots at a temperature of −30 °C and before each experiment it was restored at 37 °C for 15 min. Test samples containing Aβ42 solution at the final concentration of 20 μmol/L was incubated with antipsychotics at concentrations equaling their TPC and 1/2 × TPC (v = 10 µL). The final volume of the test samples was 100 μL. The positive control constituted a sample of Aβ42 peptide, whereas the negative control contained tannic acid at the final concentrations of 0.1 µmol/L and 10 µmol/L. The fibrillation reaction was set up by addition of thioflavin ThT dye at a concentration of 5 µmol/L. The fluorescence intensity was measured at room temperature with Ex/Em = 440 nm/484 nm (Synergy H1; BioTek, Winooski, VT, USA). The measurements of fluorescence intensity expressed as relative fluorescence units (RFU) were taken at 10, 30, 60 and 90 min and then after 24 and 48 h. The fluorescence intensity measured for control equaled 100% of Aβ aggregation and it was used to estimate the inhibitory properties of the tested antipsychotics.

For the next data set, the target named is BuChE (Homo sapiens, UniProt P06276). Nature of the data set: Synergism of antipsychotics with donepezil/rivastigmine (binary mixtures), BuChE.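 Also: combination index derived by median-effect analysis of combined drug effects on the cholinesterase, with values below 1 meaning synergism, exactly 1 additivity and above 1 antagonism.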
Sequence of BuChE (P06276 29-602): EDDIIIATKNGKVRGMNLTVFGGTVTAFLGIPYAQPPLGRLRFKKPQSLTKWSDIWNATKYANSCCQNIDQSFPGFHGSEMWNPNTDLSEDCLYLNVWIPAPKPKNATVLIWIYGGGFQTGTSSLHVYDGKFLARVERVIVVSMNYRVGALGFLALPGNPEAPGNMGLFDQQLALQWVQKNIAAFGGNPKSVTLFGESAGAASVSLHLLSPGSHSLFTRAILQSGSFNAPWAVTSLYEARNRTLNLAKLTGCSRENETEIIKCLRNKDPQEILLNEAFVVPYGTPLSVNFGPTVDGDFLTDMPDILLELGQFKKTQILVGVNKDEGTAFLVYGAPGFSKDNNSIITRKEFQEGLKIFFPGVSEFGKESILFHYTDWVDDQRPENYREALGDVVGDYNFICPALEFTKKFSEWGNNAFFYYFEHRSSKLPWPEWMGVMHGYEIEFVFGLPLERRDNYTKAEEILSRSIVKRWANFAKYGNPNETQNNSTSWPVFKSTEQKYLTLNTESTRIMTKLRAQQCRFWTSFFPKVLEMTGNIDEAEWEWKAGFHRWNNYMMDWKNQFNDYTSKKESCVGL
Another data set concerns astrocytes. Description: WST-1 viability under AAPH-induced oxidative stress, astrocytes. In kind it is cell-based, human. The procedure:
(§4) WST-1 assay (Takara, Takara Bio Europe, Saint-Germain-en-Laye, France) was used to assess the effects of antipsychotics on the growth of HUVEC and astrocytes. The experiments were conducted as described previously. HUVEC were seeded at a density of 7500 cells, and astrocytes at 5000 cells per well on 96-well microplates and cultured for 24 h followed by treatment with compounds at ½ × TPCmax and TPCmax or pure medium as a control (v = 100 μL) for another 24 h (37 °C, 5% CO2). Subsequently, the cells were washed with culture medium (100 μL) and WST-1 reagent diluted in medium (10 μL of reagent + 90 μL of medium) was added. The plates were incubated at 37 °C in 5% CO2 for another 90 min for HUVEC and 60 min for astrocytes. The absorbance was read at 450 nm using a microplate reader (iMARK, Bio-Rad, Hercules, CA, USA). The cells viability was expressed as a percentage of the control samples which constituted 100% viability.
(§5) Moreover, the WST-1 assay was used to evaluate potential protective effects of antipsychotics on the growth of HUVEC and astrocytes under conditions of AAPH-induced oxidative stress. The experimental conditions were the same as in viability studies. AA at the final concentration of 10 μg/mL was used as an antioxidant control. After reaching the confluence, the antipsychotics were added at concentrations equaling ½ × TPCmax and TPCmax. After 1 h incubation under standard conditions, 50 μL AAPH was added to the wells containing tested compounds or AA. The AAPH concentration was chosen on the basis of preliminary experiments—17.5 mmol/L in HUVEC experiments, and 15.0 mmol/L in the case of astrocytes.
For orientation: Tetrazolium dyes change colour on reduction, which living cells bring about.

The subject of another data set is HUVEC cells. Nature of the data set: WST-1 viability under AAPH-induced oxidative stress, HUVEC. In kind it is cell-based, human. The note with it: AAPH 17.5 mmol/L; for viability of HUVEC under AAPH: relative to pure medium control. The procedure: as §4, §5
For data set [3], the target named is T3, human plasma butyrylcholinesterase (Homo sapiens, UniProt P06276).
T3 construct: The solution of plasma 200-fold diluted with 0.9% NaCl; from tissue; host or cells: citrated plasma from blood of healthy human donors
T3 sequence (P06276 29-602): as above
Description: BuChE inhibition, modified Ellman's method. In kind it is biochemical. How it is done:
as §1, §2, §3

Setting [4] is: donepezil 0.005 μmol/L + antipsychotic at TPCmax, CI < 1 synergism, > 1 antagonism.
The mark [5] stands for this setting: donepezil 0.01 μmol/L + antipsychotic at TPCmax.
The mark [6] stands for this setting: donepezil 0.02 μmol/L + antipsychotic at TPCmax.
Where [7] appears, read: donepezil 0.05 μmol/L + antipsychotic at TPCmax.
Setting [8] is: donepezil 0.1 μmol/L + antipsychotic at TPCmax.
The mark [9] stands for this setting: rivastigmine 5 μmol/L + antipsychotic at TPCmax.
Setting [10] is: rivastigmine 10 μmol/L + antipsychotic at TPCmax.
[11] abbreviates: rivastigmine 15 μmol/L + antipsychotic at TPCmax.
Where [12] appears, read: rivastigmine 25 μmol/L + antipsychotic at TPCmax.
Where [13] appears, read: rivastigmine 40 μmol/L + antipsychotic at TPCmax.
[14] abbreviates: rivastigmine 50 μmol/L + antipsychotic at TPCmax.
Where [15] appears, read: rivastigmine 75 μmol/L + antipsychotic at TPCmax.
[16] abbreviates: rivastigmine 100 μmol/L + antipsychotic at TPCmax.
Where [17] appears, read: donepezil 2 μmol/L + antipsychotic at TPCmax, ComboSyn.
Setting [18] is: donepezil 5 μmol/L + antipsychotic at TPCmax, ComboSyn.
Setting [19] is: donepezil 10 μmol/L + antipsychotic at TPCmax, ComboSyn.
[20] abbreviates: donepezil 20 μmol/L + antipsychotic at TPCmax, ComboSyn.
[21] abbreviates: donepezil 50 μmol/L + antipsychotic at TPCmax, ComboSyn.
The mark [22] stands for this setting: donepezil 100 μmol/L + antipsychotic at TPCmax, ComboSyn.
Where [23] appears, read: rivastigmine 0.05 μmol/L + antipsychotic at TPCmax, ComboSyn.
[24] abbreviates: rivastigmine 0.1 μmol/L + antipsychotic at TPCmax, ComboSyn.
Setting [25] is: rivastigmine 0.25 μmol/L + antipsychotic at TPCmax, ComboSyn.
Setting [26] is: rivastigmine 0.5 μmol/L + antipsychotic at TPCmax, ComboSyn.
[27] abbreviates: rivastigmine 0.75 μmol/L + antipsychotic at TPCmax, ComboSyn.
Where [28] appears, read: rivastigmine 1 μmol/L + antipsychotic at TPCmax, ComboSyn.
[29] abbreviates: rivastigmine 2.5 μmol/L + antipsychotic at TPCmax, ComboSyn.
The mark [30] stands for this setting: rivastigmine 5 μmol/L + antipsychotic at TPCmax, ComboSyn.

Structures are written as SMILES.

As a reminder, the viability is a read-out of living cells in per cent, often relative to untreated cells.

Sequence of AChE (P22303 32-617 isoform P22303-2 limits assumed): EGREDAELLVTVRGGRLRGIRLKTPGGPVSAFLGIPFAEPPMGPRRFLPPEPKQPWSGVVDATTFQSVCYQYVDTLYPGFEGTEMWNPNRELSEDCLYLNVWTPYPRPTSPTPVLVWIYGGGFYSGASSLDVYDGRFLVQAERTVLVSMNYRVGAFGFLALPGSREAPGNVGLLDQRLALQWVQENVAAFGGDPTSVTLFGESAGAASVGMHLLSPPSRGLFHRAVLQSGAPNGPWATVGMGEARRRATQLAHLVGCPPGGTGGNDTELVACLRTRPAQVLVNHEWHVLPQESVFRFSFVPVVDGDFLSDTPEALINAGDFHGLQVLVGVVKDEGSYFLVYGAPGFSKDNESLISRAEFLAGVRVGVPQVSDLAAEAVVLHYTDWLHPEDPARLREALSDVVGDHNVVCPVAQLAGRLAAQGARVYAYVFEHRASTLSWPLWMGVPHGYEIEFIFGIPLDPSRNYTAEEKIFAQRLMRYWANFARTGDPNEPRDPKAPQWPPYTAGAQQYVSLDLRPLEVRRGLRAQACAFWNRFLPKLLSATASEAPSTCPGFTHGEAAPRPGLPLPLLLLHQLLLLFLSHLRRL
T1 sequence (P22303 32-617 isoform P22303-2 limits assumed): as above
T2 sequence (P05067 672-713 limits assumed): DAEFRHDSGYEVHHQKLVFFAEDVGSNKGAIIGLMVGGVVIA

For `O=c1[nH]c2ccccc2n1C1CCN(CCCC(c2ccc(F)cc2)c2ccc(F)cc2)CC1` [Pimozide, pimozide], the AChE reaction velocity was 0.253 ± 0.012 A/min in data set [1] (25 µg/L) and 0.248 ± 0.009 A/min in data set [1] (100 µg/L). Further, the “CI (combination index), AChE” value at AChE (setting [4]) is 0.50; on AChE (setting [5]) it was 0.63; at AChE (setting [6]) it was 0.62; on AChE (setting [7]), 0.65; on AChE (setting [8]), 0.68; on AChE (setting [9]) it was 0.26. In addition, the “CI (combination index), AChE” value at AChE (setting [10]) is 0.37; at AChE (setting [11]), 0.38; at AChE (setting [12]) it was 0.47; at AChE (setting [13]) it was 0.56; on AChE (setting [14]), 0.57; at AChE (setting [15]) it was 0.62. For the same molecule, the “CI (combination index), AChE” value on AChE (setting [16]) amounted to 0.65. For the same molecule, in data set [2] (24 and 48 h, both tested concentrations), the “effect on Aβ aggregation after a longer incubation time” value was “substantially inhibit”. Also, the “CI (combination index), BuChE” value on BuChE (setting [17]) was determined as 0.57; on BuChE (setting [18]) it was 0.55; on BuChE (setting [19]) it was 0.78; on BuChE (setting [20]), 0.76; on BuChE (setting [21]) it was 0.91; at BuChE (setting [22]) it was 0.79. Besides, the “CI (combination index), BuChE” value at BuChE (setting [23]), at BuChE (setting [24]), on BuChE (setting [25]), at BuChE (setting [26]), on BuChE (setting [27]) and on BuChE (setting [28]) was greater than 2.50 throughout. For the same molecule, the “CI (combination index), BuChE” value is on record as greater than 2.50 on BuChE (setting [29]); greater than 2.50 on BuChE (setting [30]); “above 2.5” at BuChE (rivastigmine (0.05–5 µmol/L) / pimozide at TPCmax, beyond the scale of Figure 5B). The “astrocyte viability compared with the control (pure AAPH)” value in the data set with astrocytes (benperidol 5 and 10 μg/L, penfluridol 12.5 μg/L, pimozide 15 μg/L, promazine 25 and 50 μg/L) is on record as “statistically significant increase”. The “viability of HUVEC under AAPH” value in the data set on HUVEC cells (TPC (bromperidol 25 μg/L, quetiapine 400 μg/L)) amounted to 65.2%; in the data set with HUVEC cells (½ × TPC (bromperidol 12.5 μg/L, quetiapine 200 μg/L)) it was 64.2%.

For the molecule `O=C(CCCN1CCC(O)(c2ccc(Cl)cc2)CC1)c1ccc(F)cc1` [Haloperidol, haloperidol], in data set [1] (therapeutic concentrations), the “effect on AChE activity” value is recorded as “do not affect”. For the same molecule, the “decrease of BuChE activity” value in data set [3] (100 µg/L) is given as 9.6 ± 2.3%. This molecule also returned a BuChE reaction velocity in data set [3] (100 µg/L, control 0.252 ± 0.022 A/min) of 0.228 ± 0.021 A/min. The “effect on BuChE activity” value in data set [3] (therapeutic concentrations) is reported as “do not affect”. The “CI (combination index), AChE” value at AChE (setting [4]) is reported as greater than 2.50; on AChE (setting [5]), greater than 2.50; at AChE (setting [6]), greater than 2.50; on AChE (setting [7]), 0.37; at AChE (setting [8]) it was 0.09; at AChE (setting [9]), 0.39. Further, the “CI (combination index), AChE” value was determined as 0.55 at AChE (setting [10]); 0.60 on AChE (setting [11]); 0.70 at AChE (setting [12]); 0.71 at AChE (setting [13]); 0.79 on AChE (setting [14]); 0.86 on AChE (setting [15]). In addition, at AChE (setting [16]), the “CI (combination index), AChE” value stood at 0.82. Besides, in data set [2] (both tested concentrations (½ TPC and TPC)), the “effect on Aβ aggregation within 90 min of incubation” value is reported as “ceases to significantly inhibit”. The “CI (combination index), BuChE” value on BuChE (setting [17]) came out at 0.71; at BuChE (setting [18]), 0.67; on BuChE (setting [19]), 0.79; on BuChE (setting [20]) it was 0.77; on BuChE (setting [21]), 0.84; at BuChE (setting [22]) it was 0.87. The “CI (combination index), BuChE” value on BuChE (setting [23]) is given as 0.61; on BuChE (setting [24]) it was 0.44; at BuChE (setting [25]), 0.67; at BuChE (setting [26]), 0.87; at BuChE (setting [27]) it was 1.06; at BuChE (setting [28]), 1.03. The “CI (combination index), BuChE” value on BuChE (setting [29]) was 1.19; at BuChE (setting [30]) it was 1.22.

In the case of `O=C1O[C@H]([C@@H](O)CO)C(O)=C1O` [AA, ascorbic acid], the viability at 10 µg/mL in the data set with astrocytes (Homo sapiens, Astrocyte, 10 μg/mL, AAPH 15 mmol/L) turned out to be 72.9%; in the data set on HUVEC cells (Homo sapiens, HUVEC, 10 μg/mL), 81 ± 3.4%.

The values above are taken from PMC9102502, “The Influence of Selected Antipsychotic Drugs on Biochemical Aspects of Alzheimer’s Disease” (International Journal of Molecular Sciences, 2022).
